In patent US11406633B2, “Dosing schedule of a Wnt inhibitor and an anti-PD-1 antibody molecule in combination” (Novartis AG, priority 2017, dated 2022):
Read-outs that look alike come from different tables or passages of the source.

Tests used:
[1] = clinical study of the Wnt inhibitor: bone events; format: in vivo, human; conditions: patients
From the text: The Wnt signaling pathway is required for development and survival of osteoblasts (involved in bone formation) and negatively regulates osteoclasts (involved in bone resorption). […] In addition, the short intermittent dosing of Wnt inhibitor was sufficient to result in upregulation of the activated dendritic cells signature. This is relevant because this subtype of dendritic cell is important for recruiting and activating T cells for an anti-tumoral response. Inhibition of the Wnt signaling in cancer treatment improves the response rate to PD-1 inhibition through release of inhibition of dendritic cells and T-cell activation. Overall, the combination of the Wnt inhibitor (i) and an anti-PD-1 antibody molecule, wherein Wnt inhibitor is administered only at the beginning of the treatment cycle for, e.g. 8 or 15 days, can show mutually coordinated effect of both compounds and offer better efficacy and […] safety profile compared to, for example, use of the Wnt inhibitor (i) alone.

[2] = dog, in vivo
[3] = tested on: tumor-immune microenvironment / WNT pathway (AXIN2); experiment: NanoString gene expression of paired tumor biopsies (screening vs on treatment), immune gene signatures fitted against AXIN2 change; format: in vivo, human; conditions: for relationship between AXIN2 inhibition and increased expression of the dendritic cell signature (CD103+) / relationship between AXIN2 inhibition and increased expression of the chemokine signature (CD8+ T-cell recruitment): log 2 fold-change screening to on-treatment, 9 paired samples; for relationship between AXIN2 inhibition and increased expression of the dendritic cell signature (CD103+): 15 days of exposure; for relationship between AXIN2 inhibition and increased expression of the chemokine signature (CD8+ T-cell recruitment): about 15 days of exposure
From the text: NanoString measures gene expression for a selected panel of up to about 1000 genes. This is executed using uniquely barcoded probes that hybridize directly to target RNAs (ribonucleic acids). The RNA-probe hybrids are then run out on a gel to linearize the barcodes. These barcodes are then counted and then normalized using an internally developed pipeline. […] Tumors were fixed in formalin and embedded in paraffin (FFPE) or directly placed in RNA Later. These samples were transferred to Genoptix where RNA was isolated for real time qPCR analyses of the pharmacodynamics (PD) marker AXIN2. Remnant RNA was transferred to the assay research laboratory (ARL) where gene expression was profiled using (2016) NanoString pan-cancer immune profiling panel as well as a custom design panel of immune-related genes. Gene expression was normalized using methods recommended by NanoString, with the exception that samples were normalized within specific indications (e.g. melanoma or pancreatic cancer samples were normalized separately) and housekeeping genes were selected using the geNorm stability metric [PMID: 12184808]. Certain genes overlapped between both panels, which we used to assess variability and other quality control parameters. […] The count data described herein was normalized according to the methods recommended by NanoString with one exception, namely that the samples were normalized within the specific indications as described herein and approximately 40 housekeeping genes (defined on the NanoString website for their commercially available cancer immune panel, 2016) were used for biological normalization across samples. Gene signatures were used before to probe the data for phenotypic changes in the tumor-immune microenvironment. It has been previously shown that in genetically engineered mice with activated WNT signaling the dendritic cells and T-cells in the tumor microenvironment are inhibited; however, it has not been shown that this effect is reversible. Therefore, our objective was to use gene expression analyses in samples from the patients treated with the Wnt inhibitor to determine the extent to which the inhibitory effects of WNT signaling in the tumor on the proximal immune cells can be reversed by pharmacological inhibition of the WNT pathway. To understand whether the Compound of Formula (I) has effects on the tumor immune microenvironment, we looked at the relationships between immune gene expression and the PD marker AXIN2. By using this marker, we can understand the extent to which the WNT pathway has been inhibited in a given tumor. Instead of focusing on individual genes, we used the geometric average expression of sets of genes (gene signatures) that describe a particular pathway or cellular function. One gene signature is a chemokine signature that is associated with recruitment of CD8+ T-cells [PMID: 19293190] and other signature is associated with activated CD103+ dendritic cells [PMID: 25970248]. Not every subject presented with a strong inhibition of the WNT pathway as evidenced by the fold-changes observed in AXIN2 expression. […] These dendritic cells, when stimulated, function to recruit T-cells to the tumor. Importantly, this observation was made after 15 days of exposure to the Wnt inhibitor, which supported that intermittent dosing of the Compound of Formula (I) could be combined with a checkpoint inhibitor to stimulate an anti-tumor immune response in the context of tumors that previously had lacked immune infiltrate. […] The changes in AXIN2 expression were fitted by linear model to immune signature changes. […] Both are in log 2 scale. A positive value indicates an increase in the average expression of the genes in a given signature or in AXIN2. […] Second, a relationship between interferon gamma (or type II interferon) and AXIN2 inhibition was observed. Interferon gamma is typically expressed by CD8+ T-cells. […]

tumor = experiment: other single-agent studies: cytotoxic gene signature and tumor efficacy; format: in vivo; conditions: alone as a single agent
From the text: (§1) Recently, the secreted glycoproteins R-spondins 1-4 (RSPO1-4) have emerged as important activators of canonical Wnt signaling. RSPOs bind to leucine-rich repeat-containing G-protein-coupled receptors (LGR4-6) and the transmembrane E3 ubiquitin ligases RING finger 43/zinc and RING finger 3 (RNF43/ZNRF3), forming a ternary complex (Chen et al. Genes Dev; 2013, 27, 1345). RNF43/ZNRF3 antagonize Wnt signaling by promoting the turnover of Fz and LRP6 (Hao et al. Nature 2012, 485 (7397), 195-200; Koo et al. Nature, 2012, 488 (7413), 665). Binding of RSPO induces the endocytosis of RNF43/ZNRF3, thereby increasing levels of membrane-bound Fz and LRP6 and enhancing Wnt ligand-mediated signaling. In order to activate signaling within target cells, Wnt proteins must be properly secreted and transported across the extracellular space. Porcupine is a membrane-bound-O-acyltransferase (MBOAT) that adds palmitoyl groups to Wnt proteins (Takada et al. Dev. Cell 2006, 11, 791). […] For example, the Wnt inhibitor of the present disclosure, namely 2-(2′,3-dimethyl-[2,4′-bipyridin]-5-yl)-N-(5-(pyrazin-2-yl)pyridin-2-yl)acetamide was tested and the levels of pLRP6 and AXIN2qPCR were analyzed in biopsies of skin and tumors.

[4] = animal toxicity studies in dog; conditions: dogs
Wnt pathway = experiment: pLRP6 and AXIN2 qPCR levels in biopsies of skin and tumors after treatment; format: in vivo, human; conditions: post-treatment skin sample biopsies
From the text: as §1

[5] = animal toxicity studies in rat
From the text: Recently, the secreted glycoproteins R-spondins 1-4 (RSPO1-4) have emerged as important activators of canonical Wnt signaling. RSPOs bind to leucine-rich repeat-containing G-protein-coupled receptors (LGR4-6) and the transmembrane E3 ubiquitin ligases RING finger 43/zinc and RING finger 3 (RNF43/ZNRF3), forming a ternary complex (Chen et al. Genes Dev; 2013, 27, 1345). RNF43/ZNRF3 antagonize Wnt signaling by promoting the turnover of Fz and LRP6 (Hao et al. Nature 2012, 485 (7397), 195-200; Koo et al. Nature, 2012, 488 (7413), 665). Binding of RSPO induces the endocytosis of RNF43/ZNRF3, thereby increasing levels of membrane-bound Fz and LRP6 and enhancing Wnt ligand-mediated signaling. In order to activate signaling within target cells, Wnt proteins must be properly secreted and transported across the extracellular space. Porcupine is a membrane-bound-O-acyltransferase (MBOAT) that adds palmitoyl groups to Wnt proteins (Takada et al. Dev. Cell 2006, 11, 791). Mutations in components of the canonical Wnt pathway such as APC and β-catenin play important roles in the pathogenesis of some malignancies and those genetic lesions affect upstream Wnt pathway regulation. The inhibition of the Wnt pathway signaling was recently associated with several drawbacks such as side effects and dose limiting toxicities. Such drawbacks were limiting the anti-tumor efficacy of Wnt inhibitors. Separately, activation of the Wnt pathway was linked to resistance to immunotherapy and offers a mechanism by which tumors can evade immune detection and decrease clinical benefit to check-point inhibitors (Spranger et al. Nature 2015, 523, 231). For example, the Wnt inhibitor of the present disclosure, namely 2-(2′,3-dimethyl-[2,4′-bipyridin]-5-yl)-N-(5-(pyrazin-2-yl)pyridin-2-yl)acetamide was tested and the levels of pLRP6 and AXIN2qPCR were analyzed in biopsies of skin and tumors.

[6] = determined within the CPDR001X2101 clinical study; cited from earlier work

Compound: Cc1cc(-c2ncc(CC(=O)Nc3ccc(-c4cnccn4)cn3)cc2C)ccn1 [Compound of Formula (I), 2-(2′,3-dimethyl-[2,4′-bipyridin]-5-yl)-N-(5-(pyrazin-2-yl)pyridin-2-yl)acetamide]
- bone fractures [1]: some patients experienced bone fractures
- toxicities (organs affected) [2]: toxicities in gastrointestinal (GI) tract, bones and teeth
- surrounding dendritic cell population on pharmacological inhibition of the WNT pathway ([3]; after 15 days of exposure): concomitant stimulation
- relationship between AXIN2 inhibition and increased expression of the dendritic cell signature (CD103+) [3]: fairly linear relationship
- relationship between AXIN2 inhibition and increased expression of the dendritic cell signature (CD103+) ([3]; listed as Wnt inhibitor (i)): fairly linear relationships
- relationship between AXIN2 inhibition and increased expression of the chemokine signature (CD8+ T-cell recruitment) [3]: fairly linear relationship
- relationship between AXIN2 inhibition and increased expression of the chemokine signature (CD8+ T-cell recruitment) ([3]; listed as WNT inhibitor (i)): linear relationship
- relationship between AXIN2 inhibition and increased expression of the chemokine signature (CD8+ T-cell recruitment) ([3]; listed as Wnt inhibitor (i)): fairly linear relationships
- relationship between AXIN2 inhibition and T-regulation (T-reg) signature ([3]; log 2 scale, FIG. 4): modest inverse relationship
- relationship between AXIN2 inhibition and mast cell signature ([3]; log 2 scale, FIG. 4): modest inverse relationship
- relationship between type I interferon signature and AXIN2 inhibition ([3]; log 2 scale, FIG. 4): weak relationship
- immune cell infiltrates in the tumor-immune microenvironment ([3]; patient tumor biopsies): increasing immune cell infiltrates
- inhibition of CD103+ dendritic cells ([3]; patient tumor biopsies): alleviating the inhibition of CD103+ dendritic cells
- immune signatures in tumors ([3]; patients, Wnt inhibitor alone): changes in immune signatures in tumors
- activated dendritic cells signature ([3]; short intermittent dosing): upregulation
- cytotoxic gene signature (tumor): increased
- tumor efficacy (tumor): lack of tumor efficacy
- effects on kidneys [4]: secondary effects
- level of AXIN2 (qPCR) (Wnt pathway): inhibited
- level of pLRP6 (Wnt pathway): inhibited
- trabeculae ([5]; rat studies): decrease in trabeculae
- toxicities (organs affected) ([5]; rat, in vivo): toxicities in gastrointestinal (GI) tract, bones and teeth
- effects on bone marrow ([5]; rats): secondary effects

Compound: PDR001: anti-PD-1 antibody molecule with VH and VL CDR sequences of BAP049-Clone-E, described in PCT/CN2016/099494
- RP2D [6]: dose of 400 mg Q4W is the RP2D determined within the CPDR001X2101
